Data from patent publication US20260285853A1, “COMPOUNDS AND METHODS FOR MODULATING SPLICING” (REMIX THERAPEUTICS INC., priority 2023, published 2026).

Experiments:
Assay type in all cases: cell-based
[1] = tested on: MYB mRNA; assay: Gene panel canonical junction qPCR assay, decrease in CJ mRNA, Table 3; details: decrease in canonical junction (CJ) mRNA, gene panel qPCR, Table 3
In short: (§1)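 Canonical exon-junction (CJ) transcript measured by 5′ nuclease RT-qPCR, normalized to GAPDH, GUSB or PPIA and to DMSO control (2^(−ΔΔCt)). A673 or K562 cells treated 24 h at 37° C with an 11-point 3-fold dilution series, top 10 uM, DMSO ≤0.25%. IC50 from 4-parameter logistic fit of percentage CJ decrease.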

[2] = tested on: HTT mRNA; assay: as above; details: decrease in canonical junction (CJ) mRNA, gene panel qPCR, Table 3
In short: as §1

[3] = tested on: SH-SY5Y (human neuroblastoma) cells; assay: Cell viability, Cell Titer Glo 2.0 assay; details: read-out: Viability SHSY5Y.3 GI50
In short: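 SH-SY5Y cells were exposed to serially diluted compounds in IMDM with 10% FBS and 0.1% DMSO for 72 hours at 37° C., 5% CO2. Viability was measured by CellTiter-Glo 2.0 luminescence, with medium-only wells as blank.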

[4] = tested on: HTT mRNA; assay: Splicing RT-qPCR assay (THP), Table 2A; details: Table 2A (THP); for AC50: AJ mRNA increase, read-out: HTT AJ (increase in alternative junction mRNA, AC50); for IC50: CJ mRNA decrease, read-out: HTT CJ (decrease in canonical junction mRNA, IC50)
[5] = tested on: MYB mRNA; assay: Splicing RT-qPCR assay (THP), Table 2A; details: Table 2A (THP); for AC50: AJ mRNA increase, read-out: MYB AJ (increase in alternative junction mRNA, AC50); for IC50: CJ mRNA decrease, read-out: MYB CJ (decrease in canonical junction mRNA, IC50)

CC1OB(O)c2cc(NC(=O)c3c(F)cc(N4CCC(NC5CC5)CC4)c4cn(C)nc34)ccc21 (stereo not shown) [Compound 490, 4-(4-(cyclopropylamino)piperidin-1-yl)-6-fluoro-N-(1-hydroxy-3-methyl-1,3-dihydrobenzo[c]-[1,2]oxaborol-6-yl)-2-methyl-2H-indazole-7-carboxamide 2,2,2-trifluoroacetate]
IC50 [1]: 1 to 10 µM | IC50 [2]: > 10 µM | GI50 [3]: 1 to 10 µM | AC50 [4]: > 10 µM | IC50 [4]: > 10 µM | AC50 [5]: > 10 µM | IC50 [5]: 1 to 10 µM

Cc1cc2oc(NC(=O)c3c(F)cc(N4CCC(NC5CC5)CC4)c4cn(C)nc34)cc2c(C)n1 [Compound 491, 4-[4-(cyclopropylamino)-1-piperidyl]-N-(4,6-dimethyl-furo[3,2-c]pyridin-2-yl)-6-fluoro-2-methyl-indazole-7-carboxamide]
IC50 [1]: > 10 µM | IC50 [2]: > 10 µM | GI50 [3]: 1 to 10 µM | AC50 [4]: > 10 µM | IC50 [4]: > 10 µM | AC50 [5]: > 10 µM | IC50 [5]: > 10 µM

Cc1cn2cc(NC(=O)c3ccc(N4CCC(NC5CC5)CC4)c4cn(C)nc34)nc2c(-c2cnsc2)n1 [Compound 492, 4-[4-(cyclopropylamino)-1-piperidyl]-N-(8-isothiazol-4-yl-6-methyl-imidazo[1,2-a]-pyrazin-2-yl)-2-methyl-indazole-7-carboxamide]
IC50 [1]: > 10 µM | IC50 [2]: > 10 µM | GI50 [3]: > 10 µM | AC50 [4]: > 10 µM | IC50 [4]: > 10 µM | AC50 [5]: > 10 µM | IC50 [5]: > 10 µM

CCNCC1CN(c2ccc(C(=O)Nc3cn4cc(C)nc(C)c4n3)c3nn(C)cc23)C1 [Compound 494, N-(6,8-dimethylimidazo[1,2-a]-pyrazin-2-yl)-4-[3-(ethylaminomethyl)azetidin-1-yl]-2-methyl-indazole-7-carboxamide]
IC50 [1]: > 10 µM | IC50 [2]: > 10 µM | GI50 [3]: > 10 µM | AC50 [4]: > 10 µM | IC50 [4]: > 10 µM | AC50 [5]: > 10 µM | IC50 [5]: > 10 µM

Cc1nc(C)c2nc(NC(=O)c3ccc(N4CCC(NC5CC5)CC4)c4cn(C)nc34)cn2c1C [Compound 495, 4-[4-(cyclopropyl-amino)-1-piperidyl]-2-meth-yl-N-(5,6,8-trimethylimi-dazo-[1,2-a]pyrazin-2-yl)-indazole-7-carboxamide]
IC50 [1]: 0.1 to 1 µM | IC50 [2]: 0.1 to 1 µM | GI50 [3]: 0.1 to 1 µM | AC50 [4]: 0.1 to 1 µM | IC50 [4]: 0.1 to 1 µM | AC50 [5]: 0.1 to 1 µM | IC50 [5]: 0.1 to 1 µM

Cc1cn2cc(NC(=O)c3ccc(N4CC5(CNC5)C4)c4cn(C)nc34)nc2c(C)n1 [Compound 496]
IC50 [1]: 1 to 10 µM | IC50 [2]: > 10 µM | GI50 [3]: > 10 µM | AC50 [4]: > 10 µM | IC50 [4]: > 10 µM | AC50 [5]: 0.1 to 1 µM | IC50 [5]: 1 to 10 µM

Cc1cn2cc(NC(=O)c3ccc(N4CC5(CNCCO5)C4)c4cn(C)nc34)nc2c(C)n1 [Compound 497]
IC50 [1]: > 10 µM | IC50 [2]: > 10 µM | GI50 [3]: 1 to 10 µM | AC50 [4]: > 10 µM | IC50 [4]: > 10 µM | AC50 [5]: > 10 µM | IC50 [5]: > 10 µM

Cc1cn2cc(NC(=O)c3ccc(N4CC(C5CNC5)C4)c4cn(C)nc34)nc2c(C)n1 [Compound 498]
IC50 [1]: > 10 µM | IC50 [2]: > 10 µM | GI50 [3]: > 10 µM | AC50 [4]: > 10 µM | IC50 [4]: > 10 µM | AC50 [5]: > 10 µM | IC50 [5]: > 10 µM

Cc1cn2cc(NC(=O)c3ccc(N4CC(C5CCNCC5)C4)c4cn(C)nc34)nc2c(C)n1 [Compound 499]
IC50 [1]: 1 to 10 µM | IC50 [2]: 1 to 10 µM | GI50 [3]: 1 to 10 µM | AC50 [4]: 1 to 10 µM | IC50 [4]: 1 to 10 µM | AC50 [5]: 1 to 10 µM | IC50 [5]: 1 to 10 µM

Cc1cn2cc(NC(=O)c3ccc(N4CC(N5CCNCC5)C4)c4cn(C)nc34)nc2c(C)n1 [Compound 500]
IC50 [1]: > 10 µM | IC50 [2]: > 10 µM | GI50 [3]: > 10 µM | AC50 [4]: > 10 µM | IC50 [4]: > 10 µM | AC50 [5]: > 10 µM | IC50 [5]: > 10 µM

CNC1CCN(c2ccc(C(=O)Nc3cn4cc(C)nc(C)c4n3)c3nn(C)cc23)C1 (stereo not shown) [Compound 505]
IC50 [1]: 0.1 to 1 µM | IC50 [2]: 0.1 to 1 µM | GI50 [3]: 0.1 to 1 µM | AC50 [4]: 0.1 to 1 µM | IC50 [4]: 0.1 to 1 µM | AC50 [5]: 0.1 to 1 µM | IC50 [5]: 0.1 to 1 µM

COc1cc2nn(C)cc2cc1NC(=O)c1ccc(N2CC3(CNC3)C2)c2cn(C)nc12 [Compound 506]
IC50 [1]: 0.1 to 1 µM | IC50 [2]: 1 to 10 µM | GI50 [3]: > 10 µM | AC50 [4]: 1 to 10 µM | IC50 [4]: 1 to 10 µM | AC50 [5]: 0.1 to 1 µM | IC50 [5]: 0.1 to 1 µM

COc1cc2nn(C)cc2cc1NC(=O)c1ccc(N2CC3(CCNCC3)C2)c2cn(C)nc12 [Compound 507]
IC50 [1]: 1 to 10 µM | IC50 [2]: 1 to 10 µM | GI50 [3]: 1 to 10 µM | AC50 [4]: 1 to 10 µM | IC50 [4]: 1 to 10 µM | AC50 [5]: 0.1 to 1 µM | IC50 [5]: 1 to 10 µM

COc1cc2nn(C)cc2cc1NC(=O)c1ccc(N2CC3(CNCCO3)C2)c2cn(C)nc12 [Compound 508]
IC50 [1]: > 10 µM | IC50 [2]: > 10 µM | GI50 [3]: 1 to 10 µM | AC50 [4]: > 10 µM | IC50 [4]: > 10 µM | AC50 [5]: 1 to 10 µM | IC50 [5]: > 10 µM

COc1cc2nn(C)cc2cc1NC(=O)c1ccc(N2CC(C3CNC3)C2)c2cn(C)nc12 [Compound 509]
IC50 [1]: > 10 µM | IC50 [2]: > 10 µM | GI50 [3]: > 10 µM | AC50 [4]: > 10 µM | IC50 [4]: > 10 µM | AC50 [5]: > 10 µM | IC50 [5]: > 10 µM

COc1cc2nn(C)cc2cc1NC(=O)c1ccc(N2CCC3(CCCN3)C2)c2cn(C)nc12 (stereo not shown) [Compound 512]
IC50 [1]: 1 to 10 µM | IC50 [2]: > 10 µM | GI50 [3]: 1 to 10 µM | AC50 [4]: > 10 µM | IC50 [4]: > 10 µM | AC50 [5]: 0.1 to 1 µM | IC50 [5]: 1 to 10 µM

COc1cc2nn(C)cc2cc1NC(=O)c1ccc(N2CCC3(CCNC3)C2)c2cn(C)nc12 (stereo not shown) [Compound 513]
IC50 [1]: 1 to 10 µM | IC50 [2]: > 10 µM | GI50 [3]: > 10 µM | AC50 [4]: > 10 µM | IC50 [4]: > 10 µM | AC50 [5]: 1 to 10 µM | IC50 [5]: 1 to 10 µM

COc1cc2nn(C)cc2cc1NC(=O)c1ccc(N2CC3CNCC3C2)c2cn(C)nc12 (stereo not shown) [Compound 514]
IC50 [1]: 0.1 to 1 µM | IC50 [2]: 1 to 10 µM | GI50 [3]: > 10 µM | AC50 [4]: 1 to 10 µM | IC50 [4]: 1 to 10 µM | AC50 [5]: 0.1 to 1 µM | IC50 [5]: 0.1 to 1 µM

COc1cc2nn(C)cc2cc1NC(=O)c1ccc(N2CC[C@@H]3CNCC[C@@H]32)c2cn(C)nc12 [Compound 515]
IC50 [1]: 0.1 to 1 µM | IC50 [2]: > 10 µM | GI50 [3]: 1 to 10 µM | AC50 [4]: 1 to 10 µM | IC50 [4]: > 10 µM | AC50 [5]: 0.1 to 1 µM | IC50 [5]: 0.1 to 1 µM

CNC1CCN(c2ccc(C(=O)Nc3cc4cn(C)nc4cc3OC)c3nn(C)cc23)C1 (stereo not shown) [Compound 518]
IC50 [1]: 0.1 to 1 µM | IC50 [2]: 1 to 10 µM | GI50 [3]: 1 to 10 µM | AC50 [4]: 1 to 10 µM | IC50 [4]: 1 to 10 µM | AC50 [5]: < 0.1 µM | IC50 [5]: 0.1 to 1 µM

CNC1CCN(c2ccc(NC(=O)c3cc4cc(C)nn4cc3OC)c3nn(C)cc23)CC1 [Compound 520, 6-methoxy-2-methyl-N-[2-methyl-4-[4-(methyamino)-1-piperidyl]indazol-7-yl]-pyrazolo[1,5-a] pyridine-5-carboxamide]
IC50 [1]: > 10 µM | IC50 [2]: > 10 µM | GI50 [3]: > 10 µM | AC50 [4]: > 10 µM | IC50 [4]: > 10 µM | AC50 [5]: > 10 µM | IC50 [5]: > 10 µM

CNC1CCN(c2ccc(NC(=O)c3cc4cn(C)nc4cc3OC)c3nn(C)cc23)CC1 [Compound 521, 6-methoxy-2-methyl-N-[2-methyl-4-[4-(methylamino)-1-piperidyl]indazol-7-yl]-indazole-5-carboxamide]
IC50 [1]: > 10 µM | IC50 [2]: > 10 µM | GI50 [3]: > 10 µM | AC50 [4]: > 10 µM | IC50 [4]: > 10 µM | AC50 [5]: > 10 µM | IC50 [5]: > 10 µM

COc1cc2nn(C)cc2cc1NC(=O)c1ccc(N2CCC(NC3CC3)CC2)c2c(CO)n(C)nc12 [Compound 522, 4-[4-(cyclopropylamino)-1-piperidyl]-3-(hydroxymethyl)-N-(6-methoxy-2-methyl-indazol-5-yl)-2-methyl-indazole-7-carboxamide]
IC50 [1]: 1 to 10 µM | IC50 [2]: 1 to 10 µM | GI50 [3]: 1 to 10 µM | AC50 [4]: 1 to 10 µM | IC50 [4]: 1 to 10 µM | AC50 [5]: 1 to 10 µM | IC50 [5]: 1 to 10 µM

CCNC1CCN(c2ccc(C(=O)Nc3cn4cc(C)nc(C)c4c3F)c3nn(C)cc23)CC1 [Compound 523, 4-[4-(ethylamino)-1-piperidyl]-N-(8-fluoro-1,3-dimethyl-pyrrolo[1,2-a]pyrazin-7-yl)-2-methyl-indazole-7-carboxamide]
IC50 [1]: 1 to 10 µM | IC50 [2]: 1 to 10 µM | GI50 [3]: 1 to 10 µM | AC50 [4]: 1 to 10 µM | IC50 [4]: 1 to 10 µM | AC50 [5]: 1 to 10 µM | IC50 [5]: 1 to 10 µM

COc1nc2nc(C)cn2cc1NC(=O)c1ccc(N2CCC(NC3CC3)CC2)c2cn(C)nc12 [Compound 524, 4-[4-(cyclopropyl-amino)-1-piperidyl]-N-(7-methoxy-2-methylimidazo-[1,2-a]-pyrimidin-6-yl)-2-methyl-indazole-7-carboxamide]
IC50 [1]: < 0.1 µM | IC50 [2]: 1 to 10 µM | GI50 [3]: 0.1 to 1 µM | AC50 [4]: 1 to 10 µM | IC50 [4]: 1 to 10 µM | AC50 [5]: < 0.1 µM | IC50 [5]: < 0.1 µM
